Bounds are passed on as bounds.

T1 sequence (Q96P20 whole entry, the tested form may be a part): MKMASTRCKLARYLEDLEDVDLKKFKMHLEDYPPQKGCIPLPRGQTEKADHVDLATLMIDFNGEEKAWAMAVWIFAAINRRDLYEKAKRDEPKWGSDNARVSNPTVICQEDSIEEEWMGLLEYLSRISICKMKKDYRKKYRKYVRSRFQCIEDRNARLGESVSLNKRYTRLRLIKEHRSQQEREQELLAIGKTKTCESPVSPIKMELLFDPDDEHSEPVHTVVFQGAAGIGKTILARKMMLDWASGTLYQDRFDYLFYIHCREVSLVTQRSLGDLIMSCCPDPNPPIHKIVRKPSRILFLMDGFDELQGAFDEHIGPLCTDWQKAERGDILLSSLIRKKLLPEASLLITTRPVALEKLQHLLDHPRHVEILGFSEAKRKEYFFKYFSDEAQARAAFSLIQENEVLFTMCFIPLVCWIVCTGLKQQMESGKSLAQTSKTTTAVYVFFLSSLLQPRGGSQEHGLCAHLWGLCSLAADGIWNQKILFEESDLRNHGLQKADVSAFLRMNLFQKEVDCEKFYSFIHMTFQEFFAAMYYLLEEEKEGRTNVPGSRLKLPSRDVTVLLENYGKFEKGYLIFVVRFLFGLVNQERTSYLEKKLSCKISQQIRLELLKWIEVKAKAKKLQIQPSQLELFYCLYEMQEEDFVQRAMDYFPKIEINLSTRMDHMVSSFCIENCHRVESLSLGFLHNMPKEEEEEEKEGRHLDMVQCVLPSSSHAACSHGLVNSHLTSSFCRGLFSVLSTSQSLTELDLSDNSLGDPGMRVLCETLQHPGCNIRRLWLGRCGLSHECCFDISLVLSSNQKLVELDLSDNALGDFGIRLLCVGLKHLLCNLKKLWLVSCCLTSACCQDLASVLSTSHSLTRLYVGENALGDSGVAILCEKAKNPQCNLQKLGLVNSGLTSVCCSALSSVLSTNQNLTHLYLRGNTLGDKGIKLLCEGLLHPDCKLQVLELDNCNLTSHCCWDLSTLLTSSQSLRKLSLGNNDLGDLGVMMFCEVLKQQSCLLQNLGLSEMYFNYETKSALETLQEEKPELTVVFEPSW

The first assay has as its target T1, NLRP3 inflammasome (Homo sapiens, UniProt Q96P20). Kind of assay: THP-1 ASC-GFP speck assay. On the set-up: host or cells: THP-1 ASC-GFP cells, PMA-differentiated, LPS-primed, nigericin-stimulated. Particulars: THP-1 ASC-GFP cells, PMA differentiated, LPS primed, 10 μM nigericin; read-out: THP1 ASC Speck IC50. The format is cell-based. The procedure:
THP-1 ASC-GFP cell line was purchased from Invivogen, San Diego, for inflammasome activation assay. THP-1 ASC-GFP cells stably express a 37.6 kDa ASC::GFP fusion protein that enables monitoring of spec formation by microscopy after activation of NLRP3 dependent inflammasome pathway. Cells were maintained at a density of 600,000 cells/mL in growth media consisting of RPMI 1640, 2 mM L-glutamine, 25 mM HEPES and 10% heat inactivated fetal bovine serum at 37° C. and 5% CO2. Cells were passaged every 3-4 days and used for assays for up to 20 passages.
THP-1 ASC-GFP cells were collected by centrifuging cells at 800 RPM for 5 minutes. Cell culture supernatant was removed and cells were re-suspended in fresh media at density of 1×10^6 cells/mL in assay media consisting of RPMI 1640, 2 mM L-glutamine, 25 mM HEPES and 10% heat inactivated fetal bovine serum. Phorbol 12-myristate 13-acetate (PMA) (Invivogen, tlrl-pma) was added to the cell suspension at a final concentration of 500 ng/ml and mixed thoroughly. 40,000 cells were added per well of a 384 well plate and differentiated into macrophages overnight at 37° C. and 5% CO2. Cells were primed with 1 μg/mL of lipopolysaccharide (Invivogen Ultrapure lipopolysaccharide from E. coli, tlrl-3pelps) in assay media for 3 hours at 37° C. and 5% CO2. After priming, media was removed and THP-1 ASC-GFP cells were preincubated with serially diluted test compounds with starting concentration of 40 μM followed by 2-fold dilution for a 20-point curve or vehicle (DMSO) for 30 min in assay media at 37° C. and 5% CO2. Cells were then stimulated with 10 μM nigericin (Invivogen, tlrl-nig-5) for 90 min at 37° C. and 5% CO2 to activate NLRP3 dependent inflammasome pathway and spec formation. After stimulation, cells were fixed with 4.8% paraformaldehyde (Electron Microscopy Sciences #15710-S) and incubated at room temperature for 15 min. Cells were then washed 3-times with 100 μL of phosphate buffered saline and permeabilized in the presence of premeablization/block buffer for 20 min at room temperature. Cells were then washed 3-times with 100 μL phosphate buffered saline and incubated for 1 hr at room temperature in the presence of hoechst. After staining with Hoechst, cells were washed 3-times with 100 μL phosphate buffered saline and imaged for ASC spec formation.
THP-1 ASC-GFP cells were imaged in 488 and Hoechst channels. Hoechst channel was used for cell count and 488 channel was used to identify number of GFP ASC specks in imaged fields. Percentage of cells with a spec was calculated by dividing the number of GFP positive spots by total number of cells.
The term IC50 denotes the concentration needed to halve the response being measured. As for `NS(=O)(=NC(=O)Nc1c2c(cc3c1CCC3)CCC2)c1cnn2c1CCOCC2` (single isomer, unassigned) [Example 118], the IC50 is more than 20 µM.
Regarding `COC1CCn2ncc(S(N)(=O)=NC(=O)Nc3c4c(cc5c3CCC5)CCC4)c2OC1` (single isomer, unassigned) [Example 87], the IC50 is 2.9 µM.
With `NS(=O)(=NC(=O)Nc1c2c(cc3c1CCC3)CCC2)c1cnn2c1COCCC2` (single isomer, unassigned) [Example 61], the IC50 was more than 20 µM.
For the compound `CC(C)c1nn(CC(F)F)c(C(C)C)c1NC(=O)N=S(N)(=O)c1cnn2c1OCCC2` (single isomer, unassigned) [Example 96], the IC50 is more than 20 µM.
Regarding `CC1CCc2cc3c(c(NC(=O)N=S(N)(=O)c4cnn5c4OCC(C)(C)C5)c21)CCC3` (single isomer, unassigned) [Example 138], the IC50 was 0.79 µM.
With `COC1COc2c(S(N)(=O)=NC(=O)Nc3c4c(cc5c3C(C)CC5)CCC4)cnn2C1` (single isomer, unassigned) [Example 148], the IC50 was found to be 0.71 µM.
Still for that read-out and setting: next, `CNC1CCOc2c(S(N)(=O)=NC(=O)Nc3c4c(cc5c3CCC5)CCC4)cnn2C1` (single isomer, unassigned) [Example 109]: 5.7 µM; `CN(C)[C@@H]1COc2c([S@](=O)(=NC(=O)Nc3c4c(c(F)c5c3CCC5)CCC4)NC#N)cnn2C1` (single isomer, unassigned) [Example 111]: 0.1 µM; `CC1(C)COc2c(S(N)(=O)=NC(=O)Nc3c4c(cc5c3CCC5)CCC4)cnn2C1` (single isomer, unassigned) [Example 80]: 4.5 µM.
For the compound `CC1CCc2cc3c(c(NC(=O)N=S(N)(=O)c4cnn5c4OCC5)c21)CCC3` (single isomer, unassigned) [Example 145], the IC50 is 3.8 µM.
For the compound `COc1cc(-c2cc(F)cc(C(C)C)c2NC(=O)N=S(N)(=O)c2cnn3c2OCCC3)ccn1` (single isomer, unassigned) [Example 120], the IC50 was 1.2 µM.
`CC1CCn2ncc(S(N)(=O)=NC(=O)Nc3c4c(cc5c3CCC5)CCC4)c2OC1` (single isomer, unassigned) [Example 75]: the IC50 amounted to 15 µM.
As for `COC1COc2c(S(N)(=O)=NC(=O)Nc3c4c(cc5c3C(C)CC5)CCC4)cnn2C1` (single isomer, unassigned) [Example 150], the IC50 was found to be 0.024 µM.
Regarding `COC1CCn2ncc(S(N)(=O)=NC(=O)Nc3c4c(cc5c3CCC5)CCC4)c2OC1` (single isomer, unassigned) [Example 92], the IC50 is 8.2 µM.
As for `CC1CCn2ncc(S(N)(=O)=NC(=O)Nc3c4c(cc5c3CCC5)CCC4)c2OC1` (single isomer, unassigned) [Example 79], the IC50 was found to be 1 µM.
Still for that read-out and setting: to `CN(C)[C@@H]1COc2c([S@@](=O)(=NC(=O)Nc3c4c(c(F)c5c3CCC5)CCC4)NC#N)cnn2C1` [Example 104, (R,6S)—N-cyano-6-(dimethylamino)-N′-((8-fluoro-1,2,3,5,6,7-hexahydro-s-indacen-4-yl)carbamoyl)-6,7-dihydro-5H-pyrazolo[5,1-b][1,3]oxazine-3-sulfonimidamide] belongs 0.32 µM; to `COc1cc(C(C)C)c(NC(=O)N=S(N)(=O)c2cnn3c2OCC(C)(C)C3)c(C(C)C)n1` (single isomer, unassigned) [Example 77], more than 20 µM.
The same measure, in the same setting: next, `COc1cc(C(C)C)c(NC(=O)N=S(N)(=O)c2cnn3c2OCC(C)(C)C3)c(C(C)C)n1` (single isomer, unassigned) [Example 76]: 2.6 µM; `COC1CN([C@@H]2COc3c([S@@](=O)(=NC(=O)Nc4c5c(c(F)c6c4CCC6)CCC5)NC#N)cnn3C2)C1` (stereo in doubt) [Example 63, (R,6S)—N-cyano-N′-((8-fluoro-1,2,3,5,6,7-hexahydro-s-indacen-4-yl)carbamoyl)-6-(3-methoxyazetidin-1-yl)-6,7-dihydro-5H-pyrazolo[5,1-b][1,3]oxazine-3-sulfonimidamide, ammonia]: 0.14 µM.
For `CC1(C)COc2c(S(N)(=O)=NC(=O)Nc3c4c(cc5c3CC(F)C5)CCC4)cnn2C1` (single isomer, unassigned) [Example 156], the IC50 came to 0.013 µM.
Consider `CNCc1cc(C(C)C)c(NC(=O)N=S(N)(=O)c2cnn3c2OCCC3)c(C(C)C)n1` (single isomer, unassigned) [Example 84], for which the IC50 was more than 20 µM.
As to `NS(=O)(=NC(=O)Nc1c2c(cc3c1CCC3)CCC2)c1cnn2c1OCC2` (single isomer, unassigned) [Example 124], the IC50 worked out at 0.054 µM.
On to `CNCc1cc(C(C)C)c(NC(=O)N=S(N)(=O)c2cnn3c2OCCC3)c(C(C)C)n1` (single isomer, unassigned) [Example 85], for which the IC50 is more than 20 µM.
Take `NS(=O)(=NC(=O)Nc1c2c(cc3c1CCC3)CCC2)c1cnn2c1C(F)(F)CCC2` (single isomer, unassigned) [Example 133]: the IC50 came to 2.8 µM.
Take `CNC1CCOc2c(S(N)(=O)=NC(=O)Nc3c4c(cc5c3CCC5)CCC4)cnn2C1` (single isomer, unassigned) [Example 105]: the IC50 was 9.9 µM.
For the compound `N#CNS(=O)(=NC(=O)Nc1c2c(cc3c1CCC3)CCC2)c1cnn2c1OCCC2` (single isomer, unassigned) [Example 69], the IC50 was 0.03 µM.
With `CC1CCn2ncc(S(N)(=O)=NC(=O)Nc3c4c(cc5c3CCC5)CCC4)c2OC1` (single isomer, unassigned) [Example 74], the IC50 was more than 20 µM.

A further assay has as its target T1, NLRP3 inflammasome. Kind of assay: NLRP3 inflammasome activation assay in PBMCs, IL-1β release (ELISA / HTRF). The format is cell-based. On the set-up: were freshly isolated from human peripheral blood from healthy donors; StemCells Technologies; host or cells: primary human PBMCs, LPS-primed, nigericin-stimulated. As to conditions: LPS primed, 10 uM nigericin, read-out: PBMC IL-1 β IC50. The procedure: Some of the following assays were used to determine the inhibitory activity of the compounds on the NLRP3 inflammasome using a common inflammasome activation stimuli—nigericin.
Human peripheral blood mononuclear cells (PBMCs), consisting of lymphocytes (T, B and NK cells), monocytes and dendritic cells, were freshly isolated from human peripheral blood from healthy donors. Cells were obtained through an IRB approved donor program by iXCells Biotechnologies where all the donors were tested for bacterial and viral infections. Cells were purified from peripheral blood using ficoll gradient centrifugation.
Fresh or cryopreserved PMBCs were seeded in V-bottom 96-well plate at 0.5-1×10^5 cells per well and incubated overnight at 37° C. with 5% CO2 in RPMI 1640 medium with GlutaMAX supplement, 4.5 g/L D-glucose, 10% Fetal Bovine Serum (FBS), […] Sodium Pyruvate, 1% Penicillin/Streptomycin, 10 mM HEPES and 0.05 mM of β-mercaptoethanol. Freshly isolated or cryopreserved KCs cells were seeded in flat-bottom 96-well plates at 0.6-1.5×10^5 cells/well and incubated overnight at 37° C. 5% CO2 in RPMI 1640 Medium with GlutaMAX supplement, FBS, 1% Penicillin/Streptomycin and 10 mM HEPES. The following day, the cells were primed with 100 ng/mL of lipopolysaccharides (LPS; Sigma Aldrich) in FBS-free RPMI 1640 for 3 h. After the priming step, the media was removed and PBMCs were pre-incubated with serial concentrations of test compounds (0.00017-10 uM) or vehicle (DMSO) for 30 min in FBS-free media prior to addition of the NLRP3 activator. Cells were then stimulated with 10 uM Nigericin (Sigma Aldrich; InvivoGen) for 1.5 h. Plates were centrifuged at 1,500 rpm for 3 minutes to pellet cells and supernatant was transferred into new plates for subsequent experiments.
For ELISA assays cells were seeded into 96-well plates. Post study, supernatants were removed and the levels of mature IL-1β, IL18 and TNFα (Quantikine ELISA, R&D systems) were measured in cell conditioned media by ELISA according to manufacturer's instructions.
Human frozen PBMCs were purchased from StemCells Technologies. Cells were rapidly thawed in 37° C. water bath and resuspended in fresh assay media consisting of RPMI 1640 Medium containing 1% sodium pyruvate, 10 mM HEPES, 2.5 g/L glucose and 55 μM 2-Mercaptoethanol. Cell density was adjusted to 8.1×10^5 cells/mL. Cells were primed by adding lipopolysaccharide (Invivogen Ultrapure lipopolysaccharide from E. coli, tlrl-3pelps) at a final concentration of 100 ng/mL in cell suspension. 37 μL of cell suspension with LPS was seeded per well of a 384 well plate and incubated for 3 hours at 37° C. and 5% CO2. After priming, PBMCs were preincubated with serially diluted test compounds with starting concentration of 40 μM followed by 2-fold dilution for a 20-point curve or vehicle (DMSO) for 30 min in assay media at 37° C. and 5% CO2. Cells were then stimulated with 10 μM nigericin (Invivogen, tlrl-nig-5) for 90 min at 37° C. and 5% CO2 to activate NLRP3 dependent inflammasome pathway and IL-1β release in cell culture supernatant. Cells were centrifuged at 1200 RPM for 1 min and 40 μL of supernatant was transferred into fresh plates and stored at −80° C. until IL-1β analysis.
16 μL of supernatant was added to white 384 well HTRF plates, followed by addition of 4 μL of HTRF cocktail in each well. Plates were quickly centrifuged, sealed and incubated overnight at room temperature. Next day, HTRF signal was read on a Pherastar and ratio of 665/620 was calculated based on manufacturer's protocol to obtain concentration of IL-1β in cell culture supernatant.
Background: In an ELISA, binding on a coated surface is turned into a signal by an enzyme label.
In the case of `Cn1ccc(S(=O)(=NC(=O)Nc2c3c(cc4c2CCC4)CCC3)NCc2ccccc2)n1` (stereo not shown) [drawing 659], the IC50 was more than 10 µM.
